From PubChem BioAssay AID2060488 (Molecular Pharmacology Branch, DTP, NCI, 2025)
Values belong to the compound of their own block, whether it stands above or below them.

Tested on: 966289-007-R4-J1-PDC complex spheroid viability
Assay: Anticancer human tumor 966289-007-R4-J1-PDC patient-derived pancreatic adenocarcinoma cell line growth inhibition [GQUAD]
Settings: for IC50: curve of first compound; for viability, T/C: stronger effect = lower value
Excerpt: DNA G-quadruplex Stabilizer Agents in Combinations in Complex Spheroids
A high-throughput screen of multi-cell type tumor spheroids was designed to identify active combinations of DNA G-quadruplex stabilizer agents and targeted small molecules. Complex spheroids include a stromal component modeled by human endothelial cells (HUVEC) and fibroblasts modeled by human mesenchymal stem cells (MSCs). The concentration ranges selected for each drug and investigational agent were based upon clinically achievable concentrations if the clinical Cmax of the agent was known.
Compounds. The drugs and investigational agents: pidnarulex (CX-5461; NSC782164), APTO-253 (NSC789042), BRACO-19 (NSC847499), peposertib (NSC802822), ceralasertib (NSC780249), elimusertib (NSC800525), camonsertib (NSC841442), AZD-1390 (NSC803789), olaparib (NSC753686), talazoparib (NSC767125), ART-558 (NSC835418), sotorasib (NSC818433), MRTX-1133 (NSC836407), SN-38 (NSC673596), topotecan (NSC609699), etoposide (NSC141540), doxorubicin (NSC123127), gemcitabine (NSC613327), 5-fluorouracil (NSC19893), paclitaxel (NSC125973), vemurafenib (NSC761431), panobinostat (NSC761190), R-306465 (JNJ-16241199; NSC773264), adavosertib (NSC754352), TP-3654 (NSC805149), carboplatin (NSC241240), KSQ-4279 (NSC840948), and staurosporine (NSC755774) were obtained from the National Cancer Institute (NCI) Developmental Therapeutics Program Chemical Repository (34). The FDA-approved anticancer drug set is available from the NCI Developmental Therapeutics Program. […] The stock solutions were prepared in dimethyl sulfoxide (DMSO, Sigma-Aldrich, St. Louis, MO, cat. D2650) at 800-fold the tested concentration and stored at -70 degrees C prior to their use. All drugs and investigational agents were tested over a range starting from a high concentration at or near the clinical Cmax and decreasing in half-log increments. If the clinical Cmax for an agent had not been determined, the highest concentration tested was 10 microM.
2.3 Cell Culture. All cells were maintained in an incubator at 37 degrees C and 5% CO2 with 95% humidity. The PDC lines were cultured according to standard operating procedures established by the NCI PDMR. All PDCs were thawed and cultured in Matrigel-coated flasks prepared with a working solution of 1X Ham's F-12 nutrient mix, without supplementation (Invitrogen, cat. 11765054), 100 U/mL penicillin-streptomycin (Invitrogen, cat. 15140122), and 2.5% Matrigel (Corning Inc., cat. 354248) for the first three passages. The 857933-349-R-J2-PDC line was cultured in 6C/Colon 1B media, which includes advanced DMEM/F-12 (Thermo Fisher Scientific, cat. 12634028), 10 mM HEPES (Thermo Fisher Scientific, cat. 15630080), 1X GlutaMAX supplement (Thermo Fisher Scientific, cat. 35050061), 0.1 mg/mL primocin (InvivoGen, cat. ant-pm-2), 10% defined fetal bovine serum, heat inactivated (HyClone Laboratories Inc., cat. SH30070.03HI), 50% L-WRN conditioned media (ATCC, cat. CRL-3276), 1.25 mM N-Acetyl-L-cysteine (Sigma-Aldrich, cat. A9165), 10 mM nicotinamide (Sigma-Aldrich, cat. N0636), 1X B-27 supplement (Thermo Fisher Scientific, cat. 17504044), 1X N-2 supplement (Thermo Fisher Scientific, cat. 17502048), 10 microM Y-27632 dihydrochloride (Tocris Bioscience, cat. 1254), and 50 ng/mL human EGF recombinant protein (Thermo Fisher Scientific, cat. PHG0311). The 485176-168-R4-J1-PDC line was cultured in Panc media, which includes all 6C/Colon 1B media components plus 100 ng/mL human FGF-10 (Thermo Fisher Scientific, cat. 100-26), 500 nM SB-431542 (Selleckchem, cat. S1067), and gastrin (Tocris, cat. 3006).
[…]

[1] = second compound 0.0316 µM, first compound 0.0316 µM
[2] = second compound 0.0316 µM, first compound 0.316 µM
[3] = second compound 0.1 µM, first compound 0.0316 µM
[4] = second compound 0.1 µM, first compound 0.316 µM
[5] = second compound 0.316 µM, first compound 0.0316 µM
[6] = second compound 0.316 µM, first compound 0.316 µM
[7] = second compound 1 µM, first compound 0.0316 µM
[8] = second compound 1 µM, first compound 0.316 µM
[9] = second compound 3.16 µM, first compound 0.0316 µM
[10] = second compound 3.16 µM, first compound 0.316 µM
[11] = second compound 10 µM, first compound 0.0316 µM
[12] = second compound 10 µM, first compound 0.316 µM
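Note: spheroids exposed to the agents for seven days before readout.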
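Throughout, for viability, T/C: percent viability relative to DMSO vehicle control wells taken as 100%.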

Compound: O=C(c1cc(Cc2n[nH]c(=O)c3ccccc23)ccc1F)N1CCN(C(=O)C2CC2)CC1 + Cc1[nH]c2ccc(F)cc2c1-c1nc2c3cccnc3c3ncccc3c2[nH]1
IC50 (second compound 0.0316 µM): 4590 nM
IC50 (second compound 0.1 µM): 4390 nM
IC50 (second compound 0.316 µM): 3300 nM
IC50 (second compound 1 µM): 4380 nM
IC50 (second compound 3.16 µM): 2990 nM
IC50 (second compound 10 µM): 2790 nM
viability, T/C [1]: 113%
viability, T/C (second compound 0.0316 µM, first compound 0.1 µM): 102%
viability, T/C [2]: 111%
viability, T/C (second compound 0.0316 µM, first compound 1 µM): 101%
viability, T/C (second compound 0.0316 µM, first compound 3.16 µM): 68.6%
viability, T/C (second compound 0.0316 µM, first compound 10 µM): 11.5%
viability, T/C [3]: 107%
viability, T/C (second compound 0.1 µM, first compound 0.1 µM): 103%
viability, T/C [4]: 111%
viability, T/C (second compound 0.1 µM, first compound 1 µM): 106%
viability, T/C (second compound 0.1 µM, first compound 3.16 µM): 64.1%
viability, T/C (second compound 0.1 µM, first compound 10 µM): 14.8%
viability, T/C [5]: 93%
viability, T/C (second compound 0.316 µM, first compound 0.1 µM): 107%
viability, T/C [6]: 106%
viability, T/C (second compound 0.316 µM, first compound 1 µM): 108%
viability, T/C (second compound 0.316 µM, first compound 3.16 µM): 51.4%
viability, T/C (second compound 0.316 µM, first compound 10 µM): 15%
viability, T/C [7]: 95.2%
viability, T/C (second compound 1 µM, first compound 0.1 µM): 101%
viability, T/C [8]: 108%
viability, T/C (second compound 1 µM, first compound 1 µM): 109%
viability, T/C (second compound 1 µM, first compound 3.16 µM): 64.5%
viability, T/C (second compound 1 µM, first compound 10 µM): 13.1%
viability, T/C [9]: 104%
viability, T/C (second compound 3.16 µM, first compound 0.1 µM): 110%
viability, T/C [10]: 111%
viability, T/C (second compound 3.16 µM, first compound 1 µM): 105%
viability, T/C (second compound 3.16 µM, first compound 3.16 µM): 47.2%
viability, T/C (second compound 3.16 µM, first compound 10 µM): 7.55%
viability, T/C [11]: 104%
viability, T/C (second compound 10 µM, first compound 0.1 µM): 103%
viability, T/C [12]: 112%
viability, T/C (second compound 10 µM, first compound 1 µM): 99.8%
viability, T/C (second compound 10 µM, first compound 3.16 µM): 44%
viability, T/C (second compound 10 µM, first compound 10 µM): 4.64%

IC50 (second compound 0.0316 µM): 14.7 nM
IC50 (second compound 0.1 µM): < 0.999 nM
IC50 (second compound 0.316 µM): < 0.999 nM
IC50 (second compound 1 µM): < 0.999 nM
IC50 (second compound 3.16 µM): < 0.999 nM
IC50 (second compound 10 µM): < 0.999 nM
Compound: CC[C@@]1(O)C(=O)OCc2c1cc1n(c2=O)Cc2cc3c(CN(C)C)c(O)ccc3nc2-1 + Cc1cnc(CNC(=O)c2c(=O)c3ccc(N4CCCN(C)CC4)nc3n3c2sc2ccccc23)cn1
viability, T/C (second compound 0.0316 µM, first compound 0.000999 µM): 114%
viability, T/C (second compound 0.0316 µM, first compound 0.00316 µM): 101%
viability, T/C (second compound 0.0316 µM, first compound 0.00999 µM): 70.2%
viability, T/C [1]: 11%
viability, T/C (second compound 0.0316 µM, first compound 0.0999 µM): 0.58%
viability, T/C [2]: 0.79%
viability, T/C (second compound 0.1 µM, first compound 0.000999 µM): 37.3%
viability, T/C (second compound 0.1 µM, first compound 0.00316 µM): 28.6%
viability, T/C (second compound 0.1 µM, first compound 0.00999 µM): 16.8%
viability, T/C [3]: 3.15%
viability, T/C (second compound 0.1 µM, first compound 0.0999 µM): 0.77%
viability, T/C [4]: 0.75%
viability, T/C (second compound 0.316 µM, first compound 0.000999 µM): 9.34%
viability, T/C (second compound 0.316 µM, first compound 0.00316 µM): 13.5%
viability, T/C (second compound 0.316 µM, first compound 0.00999 µM): 8.56%
viability, T/C [5]: 2.61%
viability, T/C (second compound 0.316 µM, first compound 0.0999 µM): 0.93%
viability, T/C [6]: 0.49%
viability, T/C (second compound 1 µM, first compound 0.000999 µM): 5.94%
viability, T/C (second compound 1 µM, first compound 0.00316 µM): 5.56%
viability, T/C (second compound 1 µM, first compound 0.00999 µM): 4.48%
viability, T/C [7]: 1.71%
viability, T/C (second compound 1 µM, first compound 0.0999 µM): 0.92%
viability, T/C [8]: 0.68%
viability, T/C (second compound 3.16 µM, first compound 0.000999 µM): 3.9%
viability, T/C (second compound 3.16 µM, first compound 0.00316 µM): 3.89%
viability, T/C (second compound 3.16 µM, first compound 0.00999 µM): 3.05%
viability, T/C [9]: 0.13%
viability, T/C (second compound 3.16 µM, first compound 0.0999 µM): 0.08%
viability, T/C [10]: 0.07%
viability, T/C (second compound 10 µM, first compound 0.000999 µM): 0.03%
viability, T/C (second compound 10 µM, first compound 0.00316 µM): 0.08%
viability, T/C (second compound 10 µM, first compound 0.00999 µM): 0.12%
viability, T/C [11]: 0.09%
viability, T/C (second compound 10 µM, first compound 0.0999 µM): 0.3%
viability, T/C [12]: 0.11%
